Results from article PMC8879825, “Identification of α-Glucosidase Inhibitors from Scutellaria edelbergii: ESI-LC-MS and Computational Approach” (Molecules, 2022).
In brackets after ≈: the same amount, converted by molar mass.

Target: yeast α-glucosidase enzymes
Test: α-Glucosidase inhibitory assay
Type: biochemical
Conditions: substrate p-nitrophenyl-α-D-glucopyranoside, pH 6.8, 37 °C
Experimental: The α-glucosidase assay was performed using 50 mM phosphate buffer (pH 6.8). All samples were dissolved in DMSO. An enzyme (2 U/2 mL) 20 µL/well and test samples (0.5 mg/mL) 20 µL/well and 135 µL/well phosphate buffer were loaded into a 96-well plate, followed by 15 min of incubation at 37 °C. Substrate p-nitrophenyl-α-D-glucopyranoside (0.7 mM) 25 µL/well was added to the 96-well plate after 15 min of incubation, and readings were measured at 400 nm for 30 min. DMSO 7% was used as a positive control. Percent inhibition was calculated by using the following formula [30]. % Inhibition=100×O.D of tested samples/O.D. of control−100
OD is the optical density of the tested samples.

IC50 (α-glucosidase inhibition): 377.26 ± 1.20 µg/mL (≈ 584 µM)
Compound: C[C@H]1O[C@H](O[C@H]2[C@H](O)[C@@H](O)[C@@H](O[C@H]3[C@H](O)[C@@H](O)C(O)O[C@@H]3CO)O[C@@H]2CO)[C@H](O)[C@@H](O)[C@@H]1N[C@H]1C=C(CO)[C@@H](O)[C@H](O)[C@H]1O (stereo partly shown) [acarbose]
